Patent publication US20230086007A1, “USE OF DENATONIUM BENZOATE AS A SEED TREATMENT FOR CROPS AS BIRD AND/OR INSECT REPELLENT” (KWS SAAT SE & Co. KGaA, priority 2020, published 2023)
“And” between values parts separate entries of the source, which are not always exact repeats. Equal entries are not always repeated.

Key:
[1] = tested on: corn seeds; experiment: Phytotoxicity: cold test germination rate (CT) of treated corn seeds; details: for ΔCT: vs no Bitrex
Experimental: In order to evaluate the phytotoxicity of different corn seed treatments, safety tests were conducted. Germination rates of corn seeds treated with various concentrations of denatonium benzoate (Bitrex®) [in g per unit, where 1 unit is 50.000 seeds] were counted after five days at 25° C. Cold test germination rates (CT) were counted after 7 days at 10° C. and 5 days at 25° C. The treatments were compared to untreated seeds.
KF=germination rates counted after 5 days at 25° C. and CT=cold test germination rates counted after 7 days at 10° C. and 5 days at 25° C.

[2] = LC-MS-MS determination of Bitrex in hybrid rye seedlings; assay type: in vivo
Experimental: Additional experiments in hybrid rye show also excellent systemic uptake and distribution of Bitrex. Seeds of a hybrid rye variety have been treated in application A with KintoPlus 150 ml/100 kg seeds and Bitrex 75 g/100 kg seeds and in application B with KintoPlus 150 ml/100 kg seeds and Bitrex 150 g/100 kg seeds. Seeds have been sown in longitudinal plots of 15 qm in four repetitions. 3 weeks after sowing seedlings have been harvested (40 plants per plot) and leaf material and root tissue have been analyzed using Liquid Chromatography with tandem mass spectrometry (LC-MS-MS) as described above.

[3] = tested on: wireworm of genus Agriotes; experiment: Wireworm field trial in Italy: insect damage (DAMINS); assay type: in vivo
Source text: Evaluation took place at emergence (E), at V3 stage (=3 leaves unfolded) and at V5 stage (=5 leaves unfolded). The following characteristics have been phenotyped: phytotoxicity (PHYGEN) at stage E, V3 and V5 in % per plot, vigor (VIGOR) at stage E, V3 and V5 in ratings from 1-10 (10 is best), insect damage (DAMINS) at stage V5 in plants per row (left DAMINS column in Table 7) and in % per row (right DAMINS column in Table 7).

[4] = ø of varieties and chemicals, Bitrex 0.2 g/u
[5] = ø of varieties and chemicals, Bitrex 0.5 g/u
[6] = ø of varieties and chemicals, Bitrex 1.0 g/u
[7] = ø of varieties and chemicals, Bitrex 2.0 g/u
[8] = ø of varieties and chemicals, Bitrex 5.0 g/u
[9] = ø of varieties, chemical no, Bitrex 0.2 g/u
[10] = ø of varieties, chemical no, Bitrex 0.5 g/u
[11] = ø of varieties, chemical no, Bitrex 1.0 g/u
[12] = ø of varieties, chemical no, Bitrex 2.0 g/u
[13] = ø of varieties, chemical no, Bitrex 5.0 g/u
[14] = ø of varieties, with MaximXL, Bitrex 0.2 g/u
[15] = ø of varieties, with MaximXL, Bitrex 0.5 g/u
[16] = ø of varieties, with MaximXL, Bitrex 1.0 g/u
[17] = ø of varieties, with MaximXL, Bitrex 2.0 g/u
[18] = ø of varieties, with MaximXL, Bitrex 5.0 g/u
[19] = ø of varieties, with RedigoM, Bitrex 0.2 g/u
[20] = ø of varieties, with RedigoM, Bitrex 0.5 g/u
[21] = ø of varieties, with RedigoM, Bitrex 1.0 g/u
[22] = ø of varieties, with RedigoM, Bitrex 2.0 g/u
[23] = ø of varieties, with RedigoM, Bitrex 5.0 g/u

## CC[N+](CC)(CC(=O)Nc1c(C)cccc1C)Cc1ccccc1.O=C([O-])c1ccccc1 [Bitrex, N-Benzyl-2-(2,6-dimethylanilino)-N, N-diethyl-2-oxoethan-1-aminium benzoate]
[1]; corn KXB6432, with MaximXL, Bitrex 1.0 g/u
  ΔCT: −1.0%
[1]; corn KXB6432, with MaximXL, Bitrex 2.0 g/u
  ΔCT: −2.5%
[1]; corn KXB6432, with MaximXL, Bitrex 5.0 g/u
  ΔCT: 0.0%
[1]; corn KXB6432, with RedigoM, Bitrex 0.2 g/u
  ΔCT: −0.5%
[1]; corn KXB6432, with RedigoM, Bitrex 0.5 g/u
  ΔCT: −1.0%
[1]; corn KXB6432, with RedigoM, Bitrex 1.0 g/u
  ΔCT: 2.0%
[1]; corn KXB6432, with RedigoM, Bitrex 2.0 g/u
  ΔCT: 1.0%
[1]; corn KXB6432, with RedigoM, Bitrex 5.0 g/u
  ΔCT: −1.0%
[1]; [4]
  ΔCT: 1.8%
  CT cold test germination rate, 7 days at 10° C. and 5 days at 25° C.: 97.0%
[1]; [5]
  ΔCT: 1.3%
  CT cold test germination rate, 7 days at 10° C. and 5 days at 25° C.: 96.6%
[1]; [6]
  ΔCT: 2.4%
  CT cold test germination rate, 7 days at 10° C. and 5 days at 25° C.: 97.7%
[1]; [7]
  ΔCT: 0.3%
  CT cold test germination rate, 7 days at 10° C. and 5 days at 25° C.: 95.5%
[1]; [8]
  ΔCT: 1.1%
  CT cold test germination rate, 7 days at 10° C. and 5 days at 25° C.: 96.3%
[1]; [9]
  ΔCT: 5.8%
  CT cold test germination rate, 7 days at 10° C. and 5 days at 25° C.: 94.8%
[1]; [10]
  ΔCT: 4.3%
  CT cold test germination rate, 7 days at 10° C. and 5 days at 25° C.: 93.3%
[1]; [11]
  ΔCT: 7.2%
  CT cold test germination rate, 7 days at 10° C. and 5 days at 25° C.: 96.3%
[1]; [12]
  ΔCT: 2.8%
  CT cold test germination rate, 7 days at 10° C. and 5 days at 25° C.: 91.8%
[1]; [13]
  ΔCT: 4.5%
  CT cold test germination rate, 7 days at 10° C. and 5 days at 25° C.: 93.5%
[1]; [14]
  ΔCT: −0.5%
  CT cold test germination rate, 7 days at 10° C. and 5 days at 25° C.: 99.0%
[1]; [15]
  ΔCT: −0.7%
  CT cold test germination rate, 7 days at 10° C. and 5 days at 25° C.: 98.8%
[1]; [16]
  ΔCT: −2.0%
  CT cold test germination rate, 7 days at 10° C. and 5 days at 25° C.: 97.5%
[1]; [17]
  ΔCT: −1.8%
  CT cold test germination rate, 7 days at 10° C. and 5 days at 25° C.: 97.8%
[1]; [18]
  ΔCT: −0.5%
  CT cold test germination rate, 7 days at 10° C. and 5 days at 25° C.: 99.0%
[1]; [19]
  ΔCT: 0.0%
  CT cold test germination rate, 7 days at 10° C. and 5 days at 25° C.: 97.3%
[1]; [20]
  ΔCT: 0.5%
  CT cold test germination rate, 7 days at 10° C. and 5 days at 25° C.: 97.8%
[1]; [21]
  ΔCT: 2.0%
  CT cold test germination rate, 7 days at 10° C. and 5 days at 25° C.: 99.3%
[1]; [22]
  ΔCT: −0.2%
  CT cold test germination rate, 7 days at 10° C. and 5 days at 25° C.: 97.0%
[1]; [23]
  ΔCT: −0.7%
  CT cold test germination rate, 7 days at 10° C. and 5 days at 25° C.: 96.5%
[2]; hybrid rye
  concentration of Bitrex in kernels: up to 460,000 ng/g
[2]; hybrid rye seedlings 3 weeks after sowing, root, application B: KintoPlus 150 ml/100 kg seeds and Bitrex 150 g/100 kg seeds
  Mean Bitrex concentration: 21169.7 ng/g and 25378.0 ng/g and 18336.0 ng/g and 15826.3 ng/g
[2]; hybrid rye, kernel, application A: KintoPlus 150 ml/100 kg seeds and Bitrex 75 g/100 kg seeds
  Mean Bitrex concentration: 460473.8 ng/g
[3]; 5 g Bitrex per 50,000 seeds
  DAMINS insect damage, stage V5: 6.8 plants per row and 5.62 % per row
[3]; 10 g Bitrex per 50,000 seeds
  DAMINS insect damage, stage V5: 7.3 plants per row and 6.07 % per row
[3]; 20 g Bitrex per 50,000 seeds
  DAMINS insect damage, stage V5: 5.8 plants per row and 4.79 % per row
